From ChEMBL document CHEMBL1156867, “Improved synthesis of a fluorogenic ceramidase substrate” (Bioorg Med Chem, 2010)
Calls of active or inactive are those of the source. The calls are words filed in the database; no cut-off is given here.

Legend:
[1] = Inhibition of pig liver ceramidase assessed as hydrolysis of N-((2S,3R)-1,3-dihydroxy-5-((2-oxo-2H-chromen-7-yl)oxy)pentan-2-yl)palmitamide; parameters: species or system Sus scrofa
[2] = Inhibition of rat liver ceramidase assessed as hydrolysis of N-((2S,3R)-1,3-dihydroxy-5-((2-oxo-2H-chromen-7-yl)oxy)pentan-2-yl)palmitamide
[3] = Inhibition of ceramidase in human SKOV3 cells assessed as hydrolysis of N-((2S,3R)-1,3-dihydroxy-5-((2-oxo-2H-chromen-7-yl)oxy)pentan-2-yl)palmitamide at 16 uM after 24 hrs at 37 degC by HPLC; format: cell-based; details: sk-ov-3
[4] = Inhibition of ceramidase in human SKOV3 cells assessed as hydrolysis of N-((2S,3R)-1,3-dihydroxy-5-((2-oxo-2H-chromen-7-yl)oxy)pentan-2-yl)palmitamide at 16 uM after 24 hrs at 37 degC by umbelliferone formation based fluorescence intensity assay; format: cell-based, SK-OV-3
SK-OV-3 [5] = experiment: Activity of ceramidase in human SKOV3 cells assessed as formation of 7-(((3R,4S)-4-amino-3,5- dihydroxypentyl)oxy)-2H-chromen-2-one at 16 uM after 1 to 24 hrs at 37 degC by umbelliferone formation based fluorescence intensity assay; format: cell-based; details: TDE = time-dependent effect
SK-OV-3 [6] = experiment: Activity of ceramidase in human SKOV3 cells assessed as formation of 7-(((3R,4S)-4-amino-3,5- dihydroxypentyl)oxy)-2H-chromen-2-one at 16 uM after 24 hrs at 37 degC by HPLC; format: cell-based
SK-OV-3 [7] = experiment: Activity of ceramidase in human SKOV3 cells assessed as formation of 7-(((3R,4S)-4-amino-3,5- dihydroxypentyl)oxy)-2H-chromen-2-one at 16 uM after 1 to 24 hrs at 37 degC by HPLC; format: cell-based; details: TDE = time-dependent effect

Structure (SMILES) | IC50 [1] | IC50 [2] | IC50 [3] | IC50 ([3]; read-out: IC50) | IC50 ([4]; Homo sapiens, SK-OV-3, 24 h, read-out: IC50) | IC50 ([4]; sk-ov-3) | Activity (SK-OV-3 [5]) | Activity (SK-OV-3 [6]) | Activity (SK-OV-3 [7])
CCCCCCCC/C=C\CCCCCCCC(=O)NCCO [OLEOYLETHANOLAMIDE] | 76 µM | 71 µM | Dose-dependent effect | 24 µM | 28 µM | Dose-dependent effect |  |  | 
CCCCCCCCCCCCCCCC(=O)N[C@@H](CO)[C@H](O)CCOc1ccc2ccc(=O)oc2c1 |  |  |  |  |  |  | tde | Active | tde
